Here are results for 9 compounds from US20170008896A1, “HETEROARYL SYK INHIBITORS” (BOEHRINGER INGELHEIM INTERNATIONAL GMBH, priority 2014, published 2017).

One series deals with T1, FLT3 (Homo sapiens, UniProt P36888).
T1 construct: purchased Invitrogen PV3182
T1 sequence (P36888 564-993 limits assumed): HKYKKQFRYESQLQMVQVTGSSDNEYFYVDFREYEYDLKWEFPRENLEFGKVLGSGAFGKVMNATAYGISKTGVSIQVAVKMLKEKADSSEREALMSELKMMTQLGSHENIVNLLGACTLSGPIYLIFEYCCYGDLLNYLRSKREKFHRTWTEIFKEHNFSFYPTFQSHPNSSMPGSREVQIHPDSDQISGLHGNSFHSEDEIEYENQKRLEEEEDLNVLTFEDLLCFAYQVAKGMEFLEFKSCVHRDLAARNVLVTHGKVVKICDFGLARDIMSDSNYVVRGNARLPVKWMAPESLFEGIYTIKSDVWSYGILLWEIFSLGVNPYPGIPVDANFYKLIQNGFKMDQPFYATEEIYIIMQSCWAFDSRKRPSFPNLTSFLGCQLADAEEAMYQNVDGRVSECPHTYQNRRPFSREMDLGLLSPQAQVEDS
Kind of series: FLT3 Kinase Test (Z'-LYTE). The format is biochemical. As to the method:
FLT3 is obtained from Invitrogen in 50 mM Tris (pH7.5); 100 mM NaCl; 0.05 mM EDTA, 0.05% NP-40, 2 mM DTT; 50% Glycerol #PV3182; Lot 286671; sequence see below). The enzyme is diluted to 720 nM (35 μg/ml) in enzyme dilution buffer and 10 μl aliquots are stored at −80° C.
The activity of FLT3 is measured using the Z′-LYTETM assay technology from Invitrogen (#PV3191)
The assay is performed in 384 black plates from Corning (#3676) in a final volume of 10 μl by adding 5 μl of kinase peptide mix and 2.5 μl of compound dilution. The reaction is started by addition of 2.5 μl of the 4×]ATP solution.
Positive controls are reaction mixtures containing no test compound; negative controls (blanks) are reaction mixtures containing no kinase. As a further control, the phosphopeptide solution is added to wells without kinase(=100% phosphorylation control). The non inhibited kinase reaction will result in a phosphorylation corresponding to 20%-30% of the phosphorylation control.
The reaction is performed for 1 h at room temperature before 5 μl of the development solution is added. After a further incubation for 1 h at room temperature 5 μl of the stop reagent is added. The plates are read on a Flex Station II 384 (Molecular Devices).
The output text file is evaluated in an “MS-Excel-VB-Makro” and “GraphPadPrism”(Version 5) (GraphPad Software Inc.) is used to calculate the results. Data for the inhibition of FLT3 are reported in M. data for the inhibition of the protease are reported in % CTL.

For series [1], the target named is T2, Recombinant human Aurora B (amino acids 1-344), His tag (Homo sapiens, UniProt Q96GD4).
T2 construct: Recombinant human Aurora B (amino acids 1-344, clone number DU1773)
T2 sequence (Q96GD4 whole entry, the tested form may be a part): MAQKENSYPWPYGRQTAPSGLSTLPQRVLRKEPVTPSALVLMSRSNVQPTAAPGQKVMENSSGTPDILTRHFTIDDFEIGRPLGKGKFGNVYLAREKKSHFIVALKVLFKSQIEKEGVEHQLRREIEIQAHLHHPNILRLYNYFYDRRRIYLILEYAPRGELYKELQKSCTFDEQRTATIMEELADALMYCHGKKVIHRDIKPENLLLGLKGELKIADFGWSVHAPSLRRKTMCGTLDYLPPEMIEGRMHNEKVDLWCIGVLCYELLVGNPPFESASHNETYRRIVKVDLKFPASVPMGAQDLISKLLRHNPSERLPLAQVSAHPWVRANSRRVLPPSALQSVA
Kind of series: Aurora B Kinase Test (ADP Glo luminescence). The format is biochemical. As to the method:
The activity of the Aurora B kinase protein was determined using the ADP Glo® Luminescence Kinase test (Promega; V9103X).
Serial Dilution is done in 1:10 steps in 100% DMSO.
Then 20 μl Kinase detection mix (Detection Buffer #V913B Promega; Kinase Detection Substrate #V914B Promega) were added and incubated for 40 minutes at room temperature.
(§1) The output file of the reader is a csv file that contains the well number and measured RLU. For data evaluation and calculation, the measurement of the negative control was set as 0% ctrl and the measurement of the positive control was set as 100% ctrl. Based on this values the % value for the measurement of each substance concentration was calculated using an Assay Explorer software (Accelrys). Normally, the % ctrl values calculated are between 0% and 100% values but may also occur outside these limits in individual cases based on variability or compound characteristics. The IC50 values were calculated from the % ctrl values using Assay Explorer software.Calculation: [y=(a−d)/(1+(x/c)̂b)+d], a=low value, d=high value; x=conc M; c=IC50 M; b=hill; y=% ctrl.

Series [2] can be described thus: Human Liver Microsomal Stability Test. The format is in vitro ADME. The settings on record: human liver microsomes, 1 μM test compound, 37° C.; for micosomal stability Cl: Table 2a. Here is the method:
The metabolic degradation for a specific SYK-inhibitor is performed at 37° C. with pooled human liver microsomes (human liver microsomes are commercially available as “BD UltraPool™” by Corning Life Sciences, Fogostraat 12, 1060 LJ Amsterdam, The Netherlands). The final incubation volume of 100 μl per time point contains TRIS buffer pH 7.6 at RT (0.1 M), magnesium chloride (5 mM), microsomal protein (1 mg/ml) and the test compound at a final concentration of 1 μM.
Following a short preincubation period at 37° C., the reaction is initiated by addition of beta-nicotinamide adenine dinucleotide phosphate in its reduced form (NADPH, 1 mM) and terminated by transfering an aliquot into solvent after different time points. Additionally, the NADPH-independent degradation is monitored in incubations without NADPH, terminated at the last time point.
The quenched (terminated) incubations are then pelleted by centrifugation (10000 g, 5 min).
An aliquot of the supernatant is assayed by LC-MS/MS for the remaining amount of parent compound. The half-life (t1/2 INVITRO) is determined by the slope of the semilogarithmic plot of the concentration-time profile.
The intrinsic clearance (CL_[…]) is calculated by considering the amount of protein in the incubation:
CL_[…] [μl/min/mg protein]=(Ln 2/(t1/2 INVITRO [min] * protein content [mg/ml]))*1000
The protein content [mg/ml] was determined with the “Bicinchoninic Acid Kit” of Sigma Aldrich (commercially available).
The upscaled intrinsic Clearance (CL_UP_INT) is calculated by considering the liver weight [g liver/kg body weight] and the microsomal recovery [mg protein/g liver]:
CL_UP_INT [ml/min/kg]=0.001*CL_[…]*liver weight*microsomal recovery • with microsomal recovery=45 mg protein/g liver • with liver weight=25.7 g liver/kg body weight
The percent hepatic blood flow (% Qh) is finally calculated by considering the human liver blood flow Q [ml/min/kg]:
% Qh [%]=((Q*CL_UP_INT)/(Q+CL_UP_INT)/Q)*100 • with liver blood flow (Q)=20.7 ml/min/kg.

Another series has as its target T3, Human GSK3beta (Homo sapiens, UniProt P49841).
T3 construct: purchased University Dundee/Scotland (Dr. James Hastie, Dept. of Biochemistry); host or cells: SF21 insect cells
Kind of series: GSK 3β Kinase-Test (Z'-LYTE). Type of series: biochemical. Here is the method:
Human GSK3beta (expressed and purified from SF21 cells)is obtained from the University Dundee/Scotland (Dr. James Hastie—Dept. of Biochemistry) in 50 mM Tris (pH7.5); 150 mM NaCl; 0.1 mM EGTA, 270 mM Succrose, 0.1% R-mercaptoethanol, 1 mM benzamidine, 0.2 mM PMSF; sequence see below). The enzyme is diluted to 3.56 μM (168 μg/ml) in enzyme dilution buffer and 6 μl aliquots are stored at −80° C.
The activity of GSK3β kinase protein is measured using the Z′-LYTETM assay technology from Invitrogen (#PV3324).
The assay is performed in 384 black plates from Corning (#3676) in a final volume of 10 μl by adding 5 μl of kinase peptide mix and 2.5 μl of compound dilution. The reaction is started by addition of 2.5 μl of the 4× ATP solution.
Positive controls are reaction mixtures containing no test compound; negative controls (blanks) are reaction mixtures containing no ATP. As a further control, the phosphopeptide solution is added to wells without kinase and without ATP(=100% phosphorylation control). The non inhibited kinase reaction will result in a phosphorylation corresponding to 20%-30% of the phosphorylation control.
The reaction is performed 1 h at room temperature. After 1 h 5 μl of the development solution is added. After a further incubation for 1 h at room temperature 5 μl of the stop reagent is added. Finally the plates are read on a Flex Station II 384 (Molecular Devices).
The output text file is evaluated in an “MS-Excel-VB-Makro” and “Graph Pad Prism”(Version 5) (GraphPad Software Inc.) is used to calculate the results. Data for the inhibition of GSK3beta are reported in M. data for the inhibition of the protease are reported in % CTL.

The target in series [3] is T4, Recombinant human Syk (amino acids 342-635), GST fusion (Homo sapiens, UniProt P43405).
T4 construct: Recombinant human Syk (amino acids 342-635); made in house
Kind of series: Syk Kinase Test (Kinase Glo luminescence). Conditions: Table 1; read-out: SYK-inhibition IC50-value. The format is biochemical. Here is the method: as §1, with “measured relative light units (RLU).” for “measured RLU.”, “as 100%” for “as 0%”, “as 0%” for “as 100%”, “Explorer software.” for “Explorer software.Calculation: [y=(a−d)/(1+(x/c)̂b)+d], a=low value, d=high value; x=conc M; c=IC50 M; b=hill; y=% ctrl.”

The conditions of series [4]: patients with ITP (Podolanczuk et al; Blood (2009)); cited from earlier work.
[5] abbreviates: Table 2c, compounds of WO 2011/092128, read-out: IC50 (FLT3-Inhibition).
[6] abbreviates: Table 2c, compounds of WO 2011/092128, read-out: IC50 (AURB-Inhibition).
Setting [7] is: Table 2c, compounds of WO 2011/092128, read-out: IC50 (GSK3beta-Inhibition).
[8] abbreviates: Table 1, read-out: FLT3-inhibition IC50-value.
Setting [9] is: Table 1, read-out: AURB-inhibition IC50-value.
Setting [10] is: Table 2a, compounds of the invention, read-out: AURB-inhibition IC50-value.
[11] abbreviates: Table 2a, compounds of the invention, read-out: GSK3-beta inhib. IC50-value.

Structures are written as SMILES. Read-outs that look alike come from different tables or passages of the source.

T3 sequence (P49841 whole entry): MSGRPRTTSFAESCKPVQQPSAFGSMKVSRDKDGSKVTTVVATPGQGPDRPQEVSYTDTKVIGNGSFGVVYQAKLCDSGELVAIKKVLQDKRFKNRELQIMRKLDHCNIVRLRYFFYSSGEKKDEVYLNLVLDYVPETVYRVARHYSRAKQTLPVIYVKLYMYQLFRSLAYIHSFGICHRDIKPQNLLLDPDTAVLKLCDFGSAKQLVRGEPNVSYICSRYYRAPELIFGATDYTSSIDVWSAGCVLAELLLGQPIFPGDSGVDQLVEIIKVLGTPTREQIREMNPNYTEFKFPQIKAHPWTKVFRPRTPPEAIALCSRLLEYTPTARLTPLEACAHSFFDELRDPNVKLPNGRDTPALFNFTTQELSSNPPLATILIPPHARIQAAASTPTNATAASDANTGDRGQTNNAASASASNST

Turning to `C[C@@H](Oc1nc(-c2ccc(C(F)(F)F)nc2)cc2ncccc12)[C@H]1CNC(=O)C1` [Example 3, reference compound], the values for the IC50 (at FLT3 (setting [5]); in series [1] (setting [6]); at Human GSK3beta (setting [7])) were 1.82 µM, 1.04 µM and greater than 10 µM, respectively. Also, the “microsomal stability Cl” value in series [2] (Table 2c) is 24 % Qh.

In the case of `Cc1nc2cc(-c3cnn(C(C)(C)C)c3)cc(O[C@H](C)[C@H]3CNC(=O)C3)c2[nH]1` [Example 6, (4R)-4-[(1R)-1-[[6-(1-tert-Butylpyrazol-4-yl)-2-methyl-1H-benzimidazol-4-yl]oxy]ethyl]pyrrolidin-2-one], the IC50 was 35.8 µM on FLT3 (setting [8]); greater than 50 µM in series [1] (setting [9]); greater than 50 µM in series [1] (setting [10]); 0.151 µM in series [3]; greater than 10 µM on Human GSK3beta (setting [11]). For the same compound, the “micosomal stability Cl” value in series [2] is given as less than 23 % Qh.

`Cc1cc2c(O[C@H](C)[C@H]3CNC(=O)C3)cc(-c3cnn(C(C)(C)C)c3)cn2n1` [Example 34, (4R)-4-[(1R)-1-[6-(1-tert-Butylpyrazol-4-yl)-2-methyl-pyrazolo[1,5-a]pyridin-4-yl]oxyethyl]pyrrolidin-2-one]: the IC50 was 7.93 µM on FLT3 (setting [8]); greater than 50 µM in series [1] (setting [9]); greater than 50 µM in series [1] (setting [10]); 0.0122 µM in series [3]; greater than 10 µM at Human GSK3beta (setting [11]). In series [2], the “micosomal stability Cl” value is on record as less than 23 % Qh.

Regarding `C[C@@H](Oc1nc(-c2ccc(N3CCOCC3)nc2)cc2ncccc12)[C@H]1CNC(=O)C1` [Example 45, reference compound], the figures for the IC50 (on FLT3 (setting [5]); in series [1] (setting [6]); at Human GSK3beta (setting [7])) were 0.1 µM, 0.086 µM and greater than 10 µM, respectively. The “microsomal stability Cl” value in series [2] (Table 2c) is given as 53 % Qh.

On to `Cc1nc2cc(-c3cnn(C(C)(C)C)c3)nc(O[C@H](C)[C@H]3CNC(=O)C3)n2n1` [Example 84, (4R)-4-[(1R)-1-[[7-(1-tert-Butylpyrazol-4-yl)-2-methyl-[1,2,4]triazolo[1,5-c]pyrimidin-5-yl]oxy]ethyl]pyrrolidin-2-one], for which the IC50 was greater than 50 µM at FLT3 (setting [8]); greater than 50 µM at FLT3 (Table 2a, compounds of the invention, read-out: FLT3-inhibition IC50-value); greater than 50 µM in series [1] (setting [9]); greater than 50 µM in series [1] (setting [10]); 0.637 µM in series [3]; greater than 10 µM on Human GSK3beta (setting [11]). Further, the “micosomal stability Cl” value in series [2] is reported as less than 23 % Qh.

As to `Cc1c(-c2cc(O[C@H](C)[C@H]3CNC(=O)C3)c3cccnc3c2)cnn1C` [Example 112], in series [2] (Table 2b), the “microsomal stability Cl” value was less than 23 % Qh.

For the compound `CCCn1cc(-c2cc(O[C@H](C)[C@H]3CNC(=O)C3)c3cccnc3c2)cn1` [Example 114], the “microsomal stability Cl” value in series [2] (Table 2b) is 26 % Qh.

`CC(C)n1cc(-c2cc(O[C@H](C)[C@H]3CNC(=O)C3)c3cccnc3c2)cn1` [Example 115]: the “microsomal stability Cl” value in series [2] (Table 2b) is less than 23 % Qh.

`COc1cc(Nc2ncc(F)c(Nc3ccc4c(n3)N(COP(=O)(O)O)C(=O)C(C)(C)O4)n2)cc(OC)c1OC` [R788 (R406)]: the platelet counts entry in series [4] is given as “improved platelet counts”.
